Holding throughout (format): functional
For test [1], the system named is Mycobacterium tuberculosis. As to the kind of experiment: Antimycobacterial activity against Mycobacterium tuberculosis H37Rv after 3 to 7 days by rapid direct susceptibility test.
The subject of test [2] is Mycolicibacterium smegmatis. As to the kind of experiment: Antimycobacterial activity against Mycobacterium smegmatis CMCC 93202 after 72 hrs by double dilution method. The note with it: CMCC 93202, 72 h.
Test [3] concerns Mycobacterium tuberculosis. As to the kind of experiment: Antimycobacterial activity against Mycobacterium tuberculosis H37Rv ATCC 27294 by rapid direct susceptibility test.

Values after ≈ are worked out from the molar mass of the structure shown.

For orientation: MIC means the lowest concentration that inhibits growth of the organism. High values mean weaker potency, low ones greater potency. `Cc1ccc2c(c1)/C(=N\NC(N)=S)C(=O)N2CCCN1CCN(c2cc3c(cc2F)c(=O)c(C(=O)O)cn3C2CC2)CC1`: the MIC in test [1] lay in the range of 0.1 to 64 µg/mL (≈ 0.165 to 106 µM).
On to `CCO/N=C1\C(=O)N(CN2CCC[C@H]3CN(c4c(F)cc5c(=O)c(C(=O)O)cn(C6CC6)c5c4OC)C[C@H]32)c2ccccc21`, for which the MIC in test [2] and in test [3] was 0.39 to 16 µg/mL (≈ 0.646 to 26.5 µM) throughout.
Regarding `COc1c(N2CCNC(C)C2)c(F)cc2c(=O)c(C(=O)O)cn(C3CC3)c12` (stereo not given) [GATIFLOXACIN], the MIC in test [1] came out at 0.5 µg/mL (≈ 1.33 µM).
With `CCO/N=C1\C(=O)N(CN2CCC[C@H]3CN(c4c(F)cc5c(=O)c(C(=O)O)cn(C6CC6)c5c4OC)C[C@H]32)c2ccc(F)cc21`, the MIC in test [2] and in test [3] was 0.39 to 16 µg/mL (≈ 0.627 to 25.7 µM) each time.
For `CCO/N=C1\C(=O)N(CCN2CCC[C@H]3CN(c4c(F)cc5c(=O)c(C(=O)O)cn(C6CC6)c5c4OC)C[C@H]32)c2ccccc21`, the MIC in test [2] and in test [3] was 0.39 to 16 µg/mL (≈ 0.631 to 25.9 µM) each time.
With `COc1c(N2C[C@@H]3CCCN(CN4C(=O)C(=O)c5ccccc54)[C@@H]3C2)c(F)cc2c(=O)c(C(=O)O)cn(C3CC3)c12`, the MIC in test [2] and in test [3] was 0.39 to 16 µg/mL (≈ 0.696 to 28.5 µM) each time.
In the case of `COc1c(N2C[C@@H]3CCCN(CCN4C(=O)/C(=N\NC(N)=O)c5cc(F)ccc54)[C@@H]3C2)c(F)cc2c(=O)c(C(=O)O)cn(C3CC3)c12`, the MIC in test [2] and in test [3] was 0.39 to 16 µg/mL (≈ 0.6 to 24.6 µM) in each case.
In the case of `COc1c(N2C[C@@H]3CCCN(CN4C(=O)/C(=N\NC(N)=O)c5ccccc54)[C@@H]3C2)c(F)cc2c(=O)c(C(=O)O)cn(C3CC3)c12`, the MIC in test [2] and in test [3] was 0.39 to 16 µg/mL (≈ 0.631 to 25.9 µM) each time.
For the compound `COc1c(N2C[C@@H]3CCCN(Cc4cn(CCN5C(=O)C(=O)c6ccccc65)nn4)[C@@H]3C2)c(F)cc2c(=O)c(C(=O)O)cn(C3CC3)c12`, the MIC in test [1] was in the range of 0.1 to 0.78 µg/mL (≈ 0.153 to 1.19 µM).
The same measure, in the same setting: the figure for `CCO/N=C1/C(=O)N(CCn2cc(CN3CCC[C@H]4CN(c5c(F)cc6c(=O)c(C(=O)O)cn(C7CC7)c6c5OC)C[C@H]43)nn2)c2ccc(Br)cc21` is 0.1 to 0.78 µg/mL (≈ 0.129 to 1 µM).
Consider `COc1c(N2C[C@@H]3CCCN(CCN4C(=O)/C(=N\NC(N)=O)c5ccccc54)[C@@H]3C2)c(F)cc2c(=O)c(C(=O)O)cn(C3CC3)c12`, for which the MIC in test [2] and in test [3] was 0.39 to 16 µg/mL (≈ 0.617 to 25.3 µM) each time.
With `COc1c(N2C[C@@H]3CCCN(CCN4C(=O)/C(=N\NC(N)=S)c5ccccc54)[C@@H]3C2)c(F)cc2c(=O)c(C(=O)O)cn(C3CC3)c12`, the MIC in test [2] and in test [3] was 0.39 to 16 µg/mL (≈ 0.602 to 24.7 µM) throughout.
As to `COc1c(N2C[C@@H]3CCCN(CN4C(=O)C(=O)c5cc(F)ccc54)[C@@H]3C2)c(F)cc2c(=O)c(C(=O)O)cn(C3CC3)c12`, the MIC in test [2] and in test [3] was 0.39 to 16 µg/mL (≈ 0.674 to 27.7 µM) throughout.
Take `COc1c(N2C[C@@H]3CCCN(CCN4C(=O)C(=O)c5cc(F)ccc54)[C@@H]3C2)c(F)cc2c(=O)c(C(=O)O)cn(C3CC3)c12`: the MIC in test [2] and in test [3] was 0.39 to 16 µg/mL (≈ 0.658 to 27 µM) throughout.
`Cc1ccc2c(c1)/C(=N\O)C(=O)N2CCCN1CCN(c2cc3c(cc2F)c(=O)c(C(=O)O)cn3C2CC2)CC1` came in with an MIC in test [1] of 0.1 to 64 µg/mL (≈ 0.183 to 117 µM).
On the same count and under the same terms, the result for `Cc1ccc2c(c1)/C(=N\NC(N)=O)C(=O)N2CCCN1CCN(c2cc3c(cc2F)c(=O)c(C(=O)O)cn3C2CC2)CC1` reads 0.1 to 64 µg/mL (≈ 0.17 to 109 µM).
Take `COc1c(N2C[C@@H]3CCCN(CCN4C(=O)/C(=N\NC(N)=S)c5cc(F)ccc54)[C@@H]3C2)c(F)cc2c(=O)c(C(=O)O)cn(C3CC3)c12`: the MIC in test [2] and in test [3] was 0.39 to 16 µg/mL (≈ 0.586 to 24 µM) each time.
Take `COc1c(N2C[C@@H]3CCCN(CCN4C(=O)/C(=N\O)c5ccccc54)[C@@H]3C2)c(F)cc2c(=O)c(C(=O)O)cn(C3CC3)c12`: the MIC in test [2] and in test [3] was 0.39 to 16 µg/mL (≈ 0.661 to 27.1 µM) throughout.
For `COc1c(N2C[C@@H]3CCCN(CN4C(=O)/C(=N\NC(N)=S)c5ccccc54)[C@@H]3C2)c(F)cc2c(=O)c(C(=O)O)cn(C3CC3)c12`, the MIC in test [2] and in test [3] was 0.39 to 16 µg/mL (≈ 0.615 to 25.2 µM) in each case.
In the case of `NC(=S)N/N=C1/C(=O)N(CCCN2CCN(c3cc4c(cc3F)c(=O)c(C(=O)O)cn4C3CC3)CC2)c2ccccc21`, the MIC in test [1] was 0.1 to 64 µg/mL (≈ 0.169 to 108 µM).
Take `CO/N=C1\C(=O)N(CCN2CCC[C@H]3CN(c4c(F)cc5c(=O)c(C(=O)O)cn(C6CC6)c5c4OC)C[C@H]32)c2ccccc21`: the MIC in test [2] and in test [3] was 0.39 to 16 µg/mL (≈ 0.646 to 26.5 µM) throughout.
In test [1], `CCO/N=C1/C(=O)N(CCn2cc(CN3CCC[C@H]4CN(c5c(F)cc6c(=O)c(C(=O)O)cn(C7CC7)c6c5OC)C[C@H]43)nn2)c2ccccc21` gave an MIC of 0.1 to 0.78 µg/mL (≈ 0.143 to 1.12 µM).
Same read-out and setting: the figure for `COc1c(N2C[C@@H]3CCCN(Cc4cn(CCN5C(=O)/C(=N/NC(N)=O)c6cc(Br)ccc65)nn4)[C@@H]3C2)c(F)cc2c(=O)c(C(=O)O)cn(C3CC3)c12` is 0.1 to 0.78 µg/mL (≈ 0.126 to 0.985 µM).
`COc1c(N2C[C@@H]3CCCN(CCN4C(=O)/C(=N\O)c5cc(F)ccc54)[C@@H]3C2)c(F)cc2c(=O)c(C(=O)O)cn(C3CC3)c12`: the MIC in test [2] and in test [3] was 0.39 to 16 µg/mL (≈ 0.642 to 26.3 µM) in each case.
As for `CO/N=C1\C(=O)N(CCN2CCC[C@H]3CN(c4c(F)cc5c(=O)c(C(=O)O)cn(C6CC6)c5c4OC)C[C@H]32)c2cc(F)ccc21`, the MIC in test [2] and in test [3] was 0.39 to 16 µg/mL (≈ 0.627 to 25.7 µM) throughout.
For `CO/N=C1\C(=O)N(CN2CCC[C@H]3CN(c4c(F)cc5c(=O)c(C(=O)O)cn(C6CC6)c5c4OC)C[C@H]32)c2ccccc21`, the MIC in test [2] and in test [3] was 0.39 to 16 µg/mL (≈ 0.661 to 27.1 µM) in each case.
Consider `CCO/N=C1\C(=O)N(CCN2CCC[C@H]3CN(c4c(F)cc5c(=O)c(C(=O)O)cn(C6CC6)c5c4OC)C[C@H]32)c2ccc(F)cc21`, for which the MIC in test [2] and in test [3] was 0.39 to 16 µg/mL (≈ 0.614 to 25.2 µM) each time.
In turn, `NC(=O)N/N=C1/C(=O)N(CCCN2CCN(c3cc4c(cc3F)c(=O)c(C(=O)O)cn4C3CC3)CC2)c2ccccc21` came in with an MIC in test [1] of 0.1 to 64 µg/mL (≈ 0.174 to 111 µM).
Still for that read-out and setting: the result for `O=C(O)c1cn(C2CC2)c2cc(N3CCN(CCCN4C(=O)/C(=N/O)c5ccccc54)CC3)c(F)cc2c1=O` reads 0.1 to 64 µg/mL (≈ 0.187 to 120 µM).
On to `COc1c(N2C[C@@H]3CCCN(CN4C(=O)/C(=N\NC(N)=O)c5cc(F)ccc54)[C@@H]3C2)c(F)cc2c(=O)c(C(=O)O)cn(C3CC3)c12`, for which the MIC in test [2] and in test [3] was 0.39 to 16 µg/mL (≈ 0.614 to 25.2 µM) throughout.
With `CO/N=C1\C(=O)N(CN2CCC[C@H]3CN(c4c(F)cc5c(=O)c(C(=O)O)cn(C6CC6)c5c4OC)C[C@H]32)c2ccc(F)cc21`, the MIC in test [2] and in test [3] was 0.39 to 16 µg/mL (≈ 0.642 to 26.3 µM) throughout.
`COc1c(N2C[C@@H]3CCCN(Cc4cn(CCN5C(=O)/C(=N/O)c6ccccc65)nn4)[C@@H]3C2)c(F)cc2c(=O)c(C(=O)O)cn(C3CC3)c12` returned an MIC in test [1] of 0.1 to 0.78 µg/mL (≈ 0.149 to 1.16 µM).
Regarding `COc1c(N2C[C@@H]3CCCN(CN4C(=O)/C(=N\O)c5ccccc54)[C@@H]3C2)c(F)cc2c(=O)c(C(=O)O)cn(C3CC3)c12`, the MIC in test [2] and in test [3] was 0.39 to 16 µg/mL (≈ 0.678 to 27.8 µM) throughout.
As to `COc1c(N2C[C@@H]3CCCN(CN4C(=O)/C(=N\O)c5cc(F)ccc54)[C@@H]3C2)c(F)cc2c(=O)c(C(=O)O)cn(C3CC3)c12`, the MIC in test [2] and in test [3] was 0.39 to 16 µg/mL (≈ 0.657 to 27 µM) throughout.
As to `COc1c(N2C[C@@H]3CCCN(CCN4C(=O)C(=O)c5ccccc54)[C@@H]3C2)c(F)cc2c(=O)c(C(=O)O)cn(C3CC3)c12`, the MIC in test [2] and in test [3] was 0.39 to 16 µg/mL (≈ 0.679 to 27.8 µM) in each case.
On to `COc1c(N2C[C@@H]3CCCN(CN4C(=O)/C(=N\NC(N)=S)c5cc(F)ccc54)[C@@H]3C2)c(F)cc2c(=O)c(C(=O)O)cn(C3CC3)c12`, for which the MIC in test [2] and in test [3] was 0.39 to 16 µg/mL (≈ 0.598 to 24.6 µM) each time.

The values above are taken from ChEMBL document CHEMBL4382234, “Fluoroquinolone-isatin hybrids and their biological activities” (Eur J Med Chem, 2019).
